Test results taken from patent EP4316475A1, “MERKEL CELL ACTIVATOR, SYNAPTIC VESICLE ENHANCER, NEUROTRANSMITTER RELEASE ACCELERATOR, METHOD FOR ASSESSING NEUROTRANSMITTER RELEASE ACTIVITY OF MERKEL CELLS, AND METHOD FOR SCREENING FOR NEUROTRANSMITTER RELEASE ACCELERATOR FOR MERKEL CELLS” (Shiseido Company, Ltd., priority 2021, dated 2022).
“Also recorded” adds a separate entry of the source.

Tests used:
Merkel cells [1] = test: Piccolo expression in CK20-positive Merkel cells of cultured scalp samples (fluorescent immunohistochemical staining); assay type: cell-based, Human; conditions: Sandalore 500 µM in medium from day 1, samples collected day 3, control 0.1% DMSO
From the text: Human scalp from the temporal and occipital regions was taken from healthy female subjects (47 to 60 years of age) that had received common cosmetic surgery, and used after obtaining informed consent and ethical approval (Muenster University).
Scalp samples including hair follicles were taken using a 6 mm punch from the occipital region (donors 1, 2, 3 and 4) or the temporal region (donor 5) of subjects: a person (donor 1), a person (donor 2), a person (donor 3), a person (donor 4) and a donor 5). The obtained samples were placed in 25 ng/ml NGF-added DMEM/F12 medium and cultured in a 5% CO2 humidified atmosphere at 37°C (day 0). […]
The primary antibodies used were anti-CK20 antibody (distributor: Progen, Product No.: Product No.: 61054) and anti-Piccolo antibody (distributor: Novus Biologicals (Tocris), Product No.: NBP1-90250), and the subsequent secondary antibodies used were Goat anti-Rabbit IgG (H+L) Cross-Adsorbed Secondary Antibody (distributor: Invitrogen, Product No.: A-11008) and Goat anti-Mouse IgG (H+L) Highly Cross-Adsorbed Secondary Antibody (distributor: Invitrogen, Product No.: A-11030), in combination with each of the primary antibodies, respectively. […] The number of CK20-positive cells expressing Piccolo in a specified region in a photograph taken under a fluorescent microscope were counted and shown in a graph (Fig. 4C).

Merkel cells [2] = test: Neurotransmitter release by Merkel cells in fresh skin epidermis ex vivo (FFN206 fluorescent tracer live imaging); assay type: cell-based, human; conditions: 500 µM Sandalore/BSS solution circulated from 300 s to 600 s; control BSS solution alone
Method: Fresh skin excised from the abdominal region of a healthy subject and a healthy subject, both having undergone cosmetic surgery, was used for experimentation within 5 days, after obtaining informed consent and ethical approval. The skin was exposed to 25 units/ml of a dispase-PBS solution for 15 minutes at 37°C to detach the epidermis.
The epidermis isolated from the fresh human skin was cultured for 30 minutes in a high-potassium extracellular solution (5 mM NaCl, 140 mM KCl, 10 mM HEPES (pH 7.4), 10 mM D-glucose, 2 mM MgCl2 and 2 mM CaCl2) containing FFN206 (Tocris, Catalog No. 5043), and the fluorescent-labeled neurotransmitter FFN206 was specifically taken up into the Merkel cells.
BSS (Balanced salt solution) solution (140 mM NaCl, 5 mM KCl, 10 mM HEPES (pH 7.4), 10 mM D-glucose, 2 mM MgCl2 and 2 mM CaCl2) was circulated for the first 5 minutes, as baseline. After 5 minutes (300 s) until the end of observation (600 s), circulation was with 500 µM Sandalore (Givaudan)/BSS solution (A). […]
The cell response was evaluated based on the brightness value of FFN206, using cellSens (Olympus) and MATLAB (Mathworks). […] The change in brightness value of the baseline in each ROI was determined by nonlinear approximation, and the brightness value with the effect of discoloration eliminated was determined based on the approximation results for baseline. […]

Q: Which results are given for `CC1=CCC(CCC(C)C(C)O)C1(C)C` (centres unmarked) [Sandalore, 3-methyl-5-(2,2,3-trimethyl-cyclopenta-3-en-1-yl)-pentan-2-ol]?
A: number of CK20-positive cells expressing Piccolo in a specified region (Merkel cells [1]): increased the number of Merkel cells expressing Piccolo; fluorescent brightness value of Merkel cells (FFN206 signal) (Merkel cells [2]): the fluorescent brightness value decreased; also recorded: the brightness value continued to decrease beyond the reaction line calculated from baseline
